Drawing on ChEMBL document CHEMBL1149861, “Inhibition of 15-lipoxygenase-catalysed oxygenation of arachidonic acid by substituted benzoic acids” (Bioorg Med Chem, 2008), this text covers inhibition for 13 compounds.

SMILES strings stand for the structures.

This assay relates to Glycine max. The experiment in a line: Inhibition of soybean 15-lipoxygenase.
Take `O=C(O)c1cccc(O)c1O`: the inhibition (commonly the change of the read-out against control, counted positive when it falls) was found to be 47%. The figure for `COc1cc(C(=O)O)ccc1O` is 45.4%; for `O=C(O)c1ccc(O)cc1O` it is 47.7%. The figure for `O=C(O)c1ccc(O)cc1` is 47.6%; for `O=C(O)/C=C/c1ccc(O)c(O)c1` it is 36.2%; for `O=C(O)c1cccc(O)c1` it is 46%. The figure for `O=C(O)c1ccccc1` is 51.6%. As for `O=C(O)c1c(O)cccc1O`, the inhibition is 21.2%.

`O=C(O)c1cc(O)cc(O)c1`: the inhibition stood at 58.1%. Under `O=C(O)c1ccccc1O` stands 48.4%; under `O=C(O)c1cc(O)ccc1O`, 49.9%. Under `O=C(O)c1cc(O)c(O)c(O)c1` stands 60.5%; under `O=C(O)c1ccc(O)c(O)c1`, 73.3%.
